Results taken from patent US7732456B2, “Pyridone derivative” (Banyu Pharmaceutical Co., Ltd., priority 2004, dated 2010).
Read-outs that look alike come from different tables or passages of the source.

Key:
human MCH-1R = biological target: T1, human MCH-1R (Homo sapiens, UniProt Q99705); assay: MCH binding inhibition test; settings: membranes of CHO-K1 cells expressing human MCH-1R, 50 pM [125I]MCH, 25° C., an hour; read-out: IC50 (50% inhibition concentration to specific [125I]MCH binding)
T1 construct: expressed in transfected cells; host or cells: CHO-K1 (American Type Culture Collection), plasmid vector pEF/myc/cyto (Invitrogen)
T1 sequence (Q99705 whole entry): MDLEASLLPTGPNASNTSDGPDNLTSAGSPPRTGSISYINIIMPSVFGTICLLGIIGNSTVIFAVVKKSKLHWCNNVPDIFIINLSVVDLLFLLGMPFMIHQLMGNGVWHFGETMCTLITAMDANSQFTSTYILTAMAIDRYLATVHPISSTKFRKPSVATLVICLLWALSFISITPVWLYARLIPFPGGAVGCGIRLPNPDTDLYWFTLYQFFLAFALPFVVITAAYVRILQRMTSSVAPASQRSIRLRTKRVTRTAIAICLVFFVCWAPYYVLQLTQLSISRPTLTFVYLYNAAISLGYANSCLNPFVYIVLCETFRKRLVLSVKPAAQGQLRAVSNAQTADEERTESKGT
Procedure: The obtained expression vector was transfected to a host cell CHO-K1 (American Type Culture Collection) using Lipofectamine Plus Reagent (Life Technology Inc.) to provide MCH-1R expression cells.
After washing the glass filter with 50 mM Tris buffer (pH7.4) comprising 10 mM magnesium chloride, 2 mM ethylenediamine tetraacetate and 0.04% Tween-20, radiative activity on the glass filter was measured. […] MCH binding was determined.

[1] = Brain/cerebrospinal fluid migration test; assay type: in vivo; settings: SD male rats, after 2 hours of oral administration (10 mg/kg); for concentration at 2 h: rat
From the text: A test compound was orally or intravenously administered to SD male rats (7 to 10 weeks-age, 200 to 400 g). Under anesthesia with ether for a predetermined period of time, from each of the rats whole blood was collected from its abdominal aorta using a heparin-processed syringe. Thereafter the brain skin was cut open and a 30 G needle for dental use was pierced between the cervical vertebrae and inserted into the subarachnoid cavity. Through the tube connected with the dental 30 G needle, 50-100 μL of the cerebrospinal fluid was collected into a 1-mL syringe, and then the brain was taken out. Each blood sample was centrifuged (4° C., 6,000 rpm,10 minutes) and the resulting plasma was stirred with three-fold the amount thereof of ethanol (including an internal standard substance). The brain sample was added with 2 mL of water and homogenized, a part of which was taken and stirred with three-fold the amount thereof of ethanol (including an internal standard substance). The cerebrospinal fluid was stirred with three-fold the amount thereof of ethanol (including an internal standard substance). Those samples were allowed to stand for 20 minutes at −20° C., and then centrifuged (4° C., 12,000 g, 10 minutes). The supernatant was analyzed through LC/MS/MS, and the concentration levels of the test compound in the plasma, in the brain and in the cerebrospinal fluid were quantified according to a relative calibration curve method.

[2] = Internal kinetics test (plasma concentration after oral or intravenous administration); assay type: in vivo; settings: SD male rats fasted overnight
Procedure: A test compound was orally or intravenously administered to SD male rats (7 to 10 weeks-age, 200 to 400 g) which had fasted overnight, and within a predetermined period of time, about 100 μL of the blood per rat was collected via the tail vein, using a heparinized capillary. The blood was centrifuged (4° C., 6,000 rpm, 10 minutes) to provide plasma. To the plasma tree-fold the amount thereof of ethanol (including an internal standard substance) was added and stored, followed by standing at −20° C. for 20 minutes and then centrifuge (4° C., 10,000 rpm, 10 minutes). The supernatant was analyzed through LC/MS/MS, and the plasma concentration of the test compound was quantified according to a relative calibration curve method.

Structure (SMILES) | IC50 (human MCH-1R) | other results
CN(C)CCOc1ccc(-n2ccc(OCc3ccccc3)cc2=O)cc1 [Example 1, 4-Benzyloxy-1-{4-[2-(dimethylamino)ethoxy]phenyl}-1H-pyridin-2-one] | 9.5 nM | brain concentration [1]: 2.33 nmol/g; concentration at 2 h ([1]; cerebrospinal fluid, read-out: cerebrospinal fluid concentration): 46 nM; concentration at 2 h ([1]; plasma, read-out: plasma concentration): 250 nM
O=c1cc(OCc2ccc(F)cc2)ccn1-c1ccc(OCCN2C3CCCC2CC3)cc1 [Example 91, 1-{4-[2-(8-Azabicylo[3.2.1]oct-8yl)ethoxy]phenyl}-4-(4-fluorobenzyloxy)-1H-pyridin-2-one] | 3.5 nM | 
O=c1cc(OCc2ccccc2)ccn1-c1ccc(OCCN2CCCC2)cc1 [Example 12, 4-Benzyloxy-1-{4-[2-(1-pyrrolidinyl)ethoxy]phenyl}-1H-pyridin-2-one] |  | melting point: 109 to 111 °C
CCN1CC[C@@H](Oc2ccc(-n3ccc(OCc4ccc(Cl)cn4)cc3=O)cc2)C1 [Example 123, 4-[(5-Chloro-2-pyridinyl)methoxy]-1-(4-{[(3R)-1-ethyl-3-pyrrolidinyl]-oxy}phenyl)-1H-pyridin-2-one] |  | melting point: 145 to 146 °C
O=c1cc(OCc2ccc(Cl)cn2)ccn1-c1ccc(OC[C@H]2CCCN2C2CCC2)cc1 [Example 133] | 4.7 nM | 
CCCN(C)CCOc1ccc(-n2ccc(OCc3ccc(Cl)cn3)cc2=O)cc1 [Example 116, 4-[(5-Chloro-2-pyridinyl)methoxy]-1-(4-{2-[methyl(propyl)amino]ethoxy}-phenyl)-1H-pyridin-2-one] |  | melting point: 119 to 123 °C
O=c1cc(OCc2ccccc2)ccn1-c1ccc(O[C@@H]2CCN(C3CCCC3)C2)cc1 [Example 18, 4-Benzyloxy-1-(4-{[(3R)-1-cyclopentyl-3-pyrrolidinyl]oxy}-phenyl)-1H-pyridin-2-one] | 4.3 nM | 
CN(CCOc1ccc(-n2ccc(OCc3ccccc3)cc2=O)cc1)Cc1ccccc1 [Example 5, 4-Benzyloxy-1-(4-{2-[benzyl(methyl)amino]ethoxy}phenyl)-1H-pyridin-2-one] | 3.8 nM | 
O=C1CCCN1CCOc1ccc(-n2ccc(OCc3ccc(F)cc3)cc2=O)cc1 [Example 95, 4-(4-Fluorobenzyloxy)-1-{4-[2-(2-oxo-1-pyrrolidinyl)ethoxy]phenyl}-1H-pyridin-2-one] |  | melting point: 148 to 149 °C
CC(C)N1CC[C@@H](Oc2ccc(-n3ccc(OCc4ccccc4)cc3=O)cc2)C1 [Example 19, 4-Benzyloxy-1-(4-{[(3R)-1-isopropyl-3-pyrrolidinyl]oxy}phenyl)-1H-pyridin-2-one] | 5.1 nM | 
O=c1cc(OCc2ccccc2)ccn1-c1ccc(OCCN2C3CCC2CC3)cc1 [Example 86, 1-{4-[2-(7-Azabicyclo[2.2.1]hept-7-yl)ethoxy]phenyl}-4-benzyloxy-1H-pyridin-2-one] | 1.9 nM | 
O=c1cc(OCc2ccc(F)cc2)ccn1-c1ccc(OCCN2C3CCC2CC3)cc1 [Example 90, 1-{4-[2-(7-Azabicyclo[2.2.1]hept-7-yl)ethoxy]phenyl}-4-(4-fluorobenzyloxy)-1H-pyridin-2-one] | 2.7 nM | 
CN1CC[C@@H](Oc2ccc(-n3ccc(OCc4ccc(Cl)cn4)cc3=O)cc2)C1 [Example 124, 4-[(5-Chloro-2-pyridinyl)methoxy]-1-(4-{[(3R)-1-methyl-3-pyrrolidinyl]-oxy}phenyl)-1H-pyridin-2-one] | 6.8 nM | 
CC(C)N1CC[C@@H](Oc2ccc(-n3ccc(OCc4ccc(Cl)cn4)cc3=O)cc2)C1 [Example 122, 4-[(5-Chloro-2-pyridinyl)methoxy]-1-(4-{[(3R)-1-isopropyl-3-pyrrolidinyl]-oxy}phenyl)-1H-pyridin-2-one] |  | melting point: 154 to 155 °C
CC(C)N(C)CCOc1ccc(-n2ccc(OCc3ccc(Cl)cn3)cc2=O)cc1 [Example 115, 4-[(5-Chloro-2-pyridinyl)methoxy]-1-(4-{2-[isopropyl(methyl)amino]ethoxy}-phenyl)-1H-pyridin-2-one] | 5.5 nM | melting point: 137 to 138 °C
O=c1cc(OCc2ccc(Cl)cn2)ccn1-c1ccc(OCCN2CCCC2)cc1 [Example 40, 4-[(5-Chloro-2-pyridinyl)methoxy]-1-{4-[2-(1-pyrrolidinyl)ethoxy]phenyl}-1H-pyridin-2-one] |  | melting point: 168 to 170 °C
O=c1cc(OCc2ccc(F)cc2)ccn1-c1ccc(O[C@@H]2C[C@H]3CCCN3C2)cc1 [Example 92, 4-(4-Fluorobenzyloxy)-1-{4-[(2R,7aR)-hexahydro-1H-pyrrolidin-2-yloxy]phenyl}-1H-pyridin-2-one] | 8.8 nM | 
CCN(C)CCOc1ccc(-n2ccc(OCc3ccc(Cl)cn3)cc2=O)cc1 [Example 114, 4-[(5-Chloro-2-pyridinyl)methoxy]-1-(4-{2-[ethyl(methyl)amino]ethoxy}-phenyl)-1H-pyridin-2-one] | 5.4 nM | 
CCN(CC)CCOc1ccc(-n2ccc(OCc3ccc(Cl)cn3)cc2=O)cc1 [Example 101] | 5.4 nM | melting point: 112 to 115 °C
CN1CCC[C@H]1COc1ccc(-n2ccc(OCc3ccc(Cl)cn3)cc2=O)cc1 [Example 134, 4-[(5-Chloro-2-pyridinyl)methoxy]-1-(4-{[(2S)-1-methyl-2-pyrrolidinyl]-methoxy}phenyl)-1H-pyridin-2-one] | 8.6 nM | 
CCN(CC)CCOc1ccc(-n2ccc(OCc3ccc(F)cc3)nc2=O)cc1 [Example 81] | 7.8 nM | 

Second part, led by results:

IC50 (human MCH-1R) | Structure (SMILES) | other results
4.4 nM | O=c1cc(CCc2ccccc2)ccn1-c1ccc(OCCN2CCCC2)cc1 [Example 53, 4-(2-Phenylethyl)-1-{4-[2-(1-pyrrolidinyl)ethoxy]phenyl}-1H-pyridin-2-one] | 
1.5 nM | O=c1cc(/C=C/c2ccc(F)cc2)ccn1-c1ccc(OCCN2CCCC2)cc1 [Example 45, 4-[(E)-2-(4-Fluorophenyl)vinyl]-1-{4-[2-(1-pyrrolidinyl)ethoxy]phenyl}-1H-pyridin-2-one] | 
4.2 nM | O=c1cc(OCc2cccc(Cl)c2)ccn1-c1ccc(OCCN2CCCC2)cc1 [Example 75, 4-(3-Chlorobenzyloxy)-1-{4-[2-(1-pyrrolidinyl)ethoxy]phenyl}-1H-pyridin-2-one] | 
5.6 nM | O=c1cc(OCc2ccc(F)cc2)ccn1-c1ccc(OCCN2CCCC2)cc1 [Example 29, 4-(4-Fluorobenzyloxy)-1-{4-[2-(1-pyrrolidinyl)ethoxy]phenyl}-1H-pyridin-2-one] | half-value period in blood [2]: 3.9 h; bioavailability ([2]; rat, plasma, oral): 79%
5.2 nM | O=c1cc(OCc2ccccc2)ccn1-c1ccc(OCCN2CCCC2)c(F)c1 [Example 23, 4-Benzyloxy-1-{3-fluoro-4-[2-(1-pyrrolidinyl)ethoxy]phenyl}-1H-pyridin-2-one] | 
4.8 nM | CCN(CC)CCOc1ccc(-n2ccc(OCc3ccc(F)cc3)cc2=O)cc1 [Example 30, 1-{4-[2-(Diethylamino)ethoxy]phenyl}-4-(4-fluorobenzyloxy)-1H-pyridin-2-one] | 
2.9 nM | Cc1cc(-n2ccc(OCc3ccccc3)cc2=O)ccc1OCCN1CCCCC1 [Example 21] | 
4.9 nM | O=c1cc(OCc2ccc(F)cc2)ccn1-c1ccc(OCCN2CCCCC2)cc1 [Example 28, 4-(4-Fluorobenzyloxy)-1-{4-[2-(1-piperidinyl)ethoxy]phenyl}-1H-pyridin-2-one] | 
4.5 nM | O=c1cc(OCc2ccsc2)ccn1-c1ccc(OCCN2CCCC2)cc1 [Example 68, 1-{4-[2-(1-Pyrrolidinyl)ethoxy]phenyl}-4-(3-thienylmethoxy)-1H-pyridin-2-one] | 
7 nM | COc1ccc(COc2ccn(-c3ccc(OCCN4CCCC4)cc3)c(=O)c2)cc1 [Example 73, 4-(4-Methoxybenzyloxy)-1-{4-[2-(1-pyrrolidinyl)ethoxy]phenyl}-1H-pyridin-2-one] | 
4.4 nM | O=c1cc(OCc2ccccc2)ccn1-c1ccc(OCCN2CCCCC2)cc1 [Example 2, 4-Benxyloxy-1-{4-[2-(1-piperidinyl)ethoxy]phenyl}-1H-pyridin-2-one] | 
3.5 nM | C[C@@H]1CC[C@@H](C)N1CCOc1ccc(-n2ccc(OCc3ccc(F)cc3)cc2=O)cc1 (relative stereo) [Example 32, 4-(4-Fluorobenzyloxy)-1-{4-[2-(trans-2,5-dimethyl-1-pyrrolidinyl)ethoxy]-phenyl}-1H-pyridin-2-one] | 
